The source of these data is ChEMBL document CHEMBL5131386, “Synthesis and biological evaluation of novel schisanhenol derivatives as potential hepatoprotective agents” (Eur J Med Chem, 2022).

Series [1] deals with L02. The experiment in a line: Hepatoprotective activity against concanavalin A induced human HL7702 cell apoptosis assessed as decrease in Bax expression level at 5 uM preincubated for 12 hrs followed by concanavalin A stimulation for 12 hrs by Western blot analysis. The note with it: time 24.0 hrs. Format: functional, cell-based.
Series [2] concerns Mus musculus. Briefly: Hepatoprotective activity against concanavalin A induced C57BL/6 mouse livery injury model assessed as decrease in serum ALT level at 5 mg/kg, ip once daily for 2 weeks followed by concanavalin A stimulation and measured after 12 hrs. Format: functional, organism-based.
Series [3] concerns L02. Briefly: Hepatoprotective activity against concanavalin A induced livery injury in human HL7702 assessed as decrease in IL-6 expression level at 5 uM preincubated for 12 hrs followed by concanavalin A stimulation for 12 hrs by Western blot analysis. The series is classed as functional, cell-based. The note with it: time 24.0 hrs. For orientation: A western blot detects proteins with antibodies after separation by electrophoresis.

Series [4] relates to Mus musculus. The experiment in a line: Hepatoprotective activity against concanavalin A induced C57BL/6 mouse livery injury model assessed as decrease in severity of liver damage at 5 mg/kg, ip once daily for 2 weeks followed by concanavalin A stimulation and measured after 12 hrs by H&E staining based […]. The series is classed as functional, organism-based.

The subject of series [5] is L02. Briefly: Cytotoxicity against human HL7702 cells ssessed as cell survival rate at 5 uM for 12 hrs by MTT assay. The series is classed as toxicity, cell-based. The note with it: l02, 12 h. Background: Formazan colour is commonly taken as a measure of viable cells.
Series [6] concerns Mus musculus. The experiment in a line: Hepatoprotective activity against concanavalin A induced C57BL/6 mouse livery injury model assessed as decrease in phosphorylated STAT3 level in liver at 5 mg/kg, ip once daily for 2 weeks followed by concanavalin A stimulation and measured after 12 hrs by DAB staining based immunohistological anlaysis. Format: functional, organism-based.

The test system of series [7] is Mus musculus. The experiment in a line: Hepatoprotective activity against concanavalin A induced C57BL/6 mouse livery injury model assessed as decrease in STAT3 phosphorylation level at 5 mg/kg, ip once daily for 2 weeks followed by concanavalin A stimulation and measured after 12 hrs by Western blot analysis. Format: functional, organism-based.
Series [8] concerns L02. Briefly: Hepatoprotective activity against concanavalin A induced livery injury in human HL7702 cells assessed as increase in HO-1 expression level at 5 uM preincubated for 12 hrs followed by concanavalin A stimulation for 12 hrs by Western blot analysis. The series is classed as functional, cell-based. The note with it: time 24.0 hrs.
Series [9] deals with Mus musculus. Briefly: Hepatoprotective activity against concanavalin A induced C57BL/6 mouse livery injury model assessed as decrease in Bax level at 5 mg/kg, ip once daily for 2 weeks followed by concanavalin A stimulation and measured after 12 hrs by Western blot analysis. Format: functional, organism-based.
For series [10], the system named is Mus musculus. Briefly: Hepatoprotective activity against concanavalin A induced C57BL/6 mouse livery injury model assessed as decrease in JAK2 phosphorylation level at 5 mg/kg, ip once daily for 2 weeks followed by concanavalin A stimulation and measured after 12 hrs by Western blot analysis. The series is classed as functional, organism-based.
Series [11] has as its system Mus musculus. The experiment in a line: Hepatoprotective activity against concanavalin A induced C57BL/6 mouse livery injury model assessed as decrease in serum AST level at 5 mg/kg, ip once daily for 2 weeks followed by concanavalin A stimulation and measured after 12 hrs. Format: functional, organism-based.
Series [12] has as its system Mus musculus. The experiment in a line: Hepatoprotective activity against concanavalin A induced C57BL/6 mouse livery injury model assessed as decrease in serum IL-6 level at 5 mg/kg, ip once daily for 2 weeks followed by concanavalin A stimulation and measured after 12 hrs by ELISA. Format: functional, organism-based. Background: In an ELISA, binding on a coated surface is turned into a signal by an enzyme label.

Series [13] concerns Mus musculus. Briefly: Hepatoprotective activity against concanavalin A induced C57BL/6 mouse livery injury model assessed as decrease in cleaved caspase-3 level in liver at 5 mg/kg, ip once daily for 2 weeks followed by concanavalin A stimulation and measured after 12 hrs by DAB staining based immunohistological anlaysis. Format: functional, organism-based.
Series [14] has as its system Mus musculus. The experiment in a line: Hepatoprotective activity against concanavalin A induced C57BL/6 mouse livery injury model assessed as increase in Bcl-2 level at 5 mg/kg, ip once daily for 2 weeks followed by concanavalin A stimulation and measured after 12 hrs by Western blot analysis. Format: functional, organism-based.
Series [15] has as its system L02. The experiment in a line: Hepatoprotective activity against concanavalin A induced human HL7702 cell apoptosis assessed as nuclear morphological changes at 5 uM preincubated for 12 hrs followed by concanavalin A stimulation for 12 hrs by Hoechst 33342 staining based fluorescence microscopy. Format: functional. The note with it: time 24.0 hrs.
Series [16] relates to Mus musculus. The experiment in a line: Hepatoprotective activity against concanavalin A induced C57BL/6 mouse livery injury model assessed as decrease in cleaved caspase 3 level at 5 mg/kg, ip once daily for 2 weeks followed by concanavalin A stimulation and measured after 12 hrs by Western blot analysis. The series is classed as functional, organism-based.
Series [17] concerns L02. The experiment in a line: Hepatoprotective activity against concanavalin A induced liver injury in human HL7702 cells assessed as cell survival rate at 5 uM preincubated for 12 hrs followed by concanavalin A stimulation for 12 hrs by MTT assay (reference value: 51.37%). Format: functional. The note with it: time 24 hrs, read-out: Survival.
In series [18] the test system is L02. The experiment in a line: Hepatoprotective activity against concanavalin A induced human HL7702 cell apoptosis assessed as increase in Bcl-2 expression level at 5 uM preincubated for 12 hrs followed by concanavalin A stimulation for 12 hrs by Western blot analysis. The series is classed as functional, cell-based. The note with it: time 24.0 hrs.
For series [19], the system named is L02. Briefly: Hepatoprotective activity against concanavalin A induced human HL7702 cell apoptosis assessed as decrease in cleaved caspase-3 level at 5 uM preincubated for 12 hrs followed by concanavalin A stimulation for 12 hrs by Western blot analysis. Format: functional, cell-based. The note with it: time 24.0 hrs.
Series [20] relates to L02. The experiment in a line: Hepatoprotective activity against concanavalin A induced livery injury in human HL7702 cells assessed as decrease in STAT3 phosphorylation level at 5 uM preincubated for 12 hrs followed by concanavalin A stimulation for 12 hrs by Western blot analysis. The series is classed as functional, cell-based. The note with it: time 24.0 hrs.
The subject of series [21] is L02. Briefly: Hepatoprotective activity against concanavalin A induced livery injury in human HL7702 cells assessed as decrease in JAK2 phosphorylation level at 5 uM preincubated for 12 hrs followed by concanavalin A stimulation for 12 hrs by Western blot analysis. The note with it: time 24.0 hrs. The series is classed as functional, cell-based.
In series [22] the test system is L02. The experiment in a line: Hepatoprotective activity against concanavalin A induced livery injury in human HL7702 assessed as decrease in IL-6 expression level at 5 uM preincubated for 24 hrs followed by concanavalin A stimulation for 12 hrs by ELISA assay. Format: functional, cell-based. The note with it: time 36.0 hrs.
Series [23] has as its system Mus musculus. The experiment in a line: Hepatoprotective activity against concanavalin A induced C57BL/6 mouse livery injury model assessed as decrease in STAT3 phosphorylation level at 150 mg/kg, ip once daily for 2 weeks followed by concanavalin A stimulation and measured after 12 hrs by Western blot analysis. Format: functional, organism-based.
In series [24] the test system is Mus musculus. Briefly: Hepatoprotective activity against concanavalin A induced C57BL/6 mouse livery injury model assessed as decrease in serum ALT level at 150 mg/kg, ip once daily for 2 weeks followed by concanavalin A stimulation and measured after 12 hrs. The series is classed as functional, organism-based.
Series [25] deals with Mus musculus. Briefly: Hepatoprotective activity against concanavalin A induced C57BL/6 mouse livery injury model assessed as decrease in serum AST level at 150 mg/kg, ip once daily for 2 weeks followed by concanavalin A stimulation and measured after 12 hrs. The series is classed as functional, organism-based.
Series [26] relates to Mus musculus. The experiment in a line: Hepatoprotective activity against concanavalin A induced C57BL/6 mouse livery injury model assessed as decrease in JAK2 phosphorylation level at 150 mg/kg, ip once daily for 2 weeks followed by concanavalin A stimulation and measured after 12 hrs by Western blot analysis. Format: functional, organism-based.
For series [27], the system named is Mus musculus. Briefly: Hepatoprotective activity against concanavalin A induced C57BL/6 mouse livery injury model assessed as decrease in severity of liver damage at 150 mg/kg, ip once daily for 2 weeks followed by concanavalin A stimulation and measured after 12 hrs by H&E staining based […]. Format: functional, organism-based.
In series [28] the test system is Mus musculus. Briefly: Hepatoprotective activity against concanavalin A induced C57BL/6 mouse livery injury model assessed as increase in Bcl-2 level at 150 mg/kg, ip once daily for 2 weeks followed by concanavalin A stimulation and measured after 12 hrs by Western blot analysis. Format: functional, organism-based.
Series [29] deals with Mus musculus. Briefly: Hepatoprotective activity against concanavalin A induced C57BL/6 mouse livery injury model assessed as decrease in phosphorylated STAT3 level in liver at 150 mg/kg, ip once daily for 2 weeks followed by concanavalin A stimulation and measured after 12 hrs by DAB staining based immunohistological anlaysis. Format: functional, organism-based.
The test system of series [30] is Mus musculus. The experiment in a line: Hepatoprotective activity against concanavalin A induced C57BL/6 mouse livery injury model assessed as decrease in cleaved caspase-3 level in liver at 150 mg/kg, ip once daily for 2 weeks followed by concanavalin A stimulation and measured after 12 hrs by DAB staining based immunohistological anlaysis. Format: functional, organism-based.

The subject of series [31] is Mus musculus. The experiment in a line: Hepatoprotective activity against concanavalin A induced C57BL/6 mouse livery injury model assessed as decrease in serum IL-6 level at 150 mg/kg, ip once daily for 2 weeks followed by concanavalin A stimulation and measured after 12 hrs by ELISA. Format: functional, organism-based.
The subject of series [32] is Mus musculus. The experiment in a line: Hepatoprotective activity against concanavalin A induced C57BL/6 mouse livery injury model assessed as decrease in Bax level at 150 mg/kg, ip once daily for 2 weeks followed by concanavalin A stimulation and measured after 12 hrs by Western blot analysis. Format: functional, organism-based.
For series [33], the system named is Mus musculus. The experiment in a line: Hepatoprotective activity against concanavalin A induced C57BL/6 mouse livery injury model assessed as decrease in cleaved caspase 3 level at 150 mg/kg, ip once daily for 2 weeks followed by concanavalin A stimulation and measured after 12 hrs by Western blot analysis. The series is classed as functional, organism-based.

Active and inactive are the calls of the source. The rule behind the calls is not given here.

With `COc1cc2c(c(OC)c1OC)-c1c(c(Cl)c(OC)c(OC)c1OC(=O)/C=C/c1ccccc1)CC(C)C(C)C2` (stereo unspecified), the outcome with L02 [1], in the series with Mus musculus [2], in the series on L02 [3], in the series on Mus musculus [4], in the series on Mus musculus [6] and in the series on Mus musculus [7] was Active. In addition, the result with L02 [8], in the series with Mus musculus [9], in the series with Mus musculus [10], in the series with Mus musculus [11], in the series with Mus musculus [12] and in the series with Mus musculus [13] was Active. The outcome in the series with Mus musculus [14], with L02 [15], with Mus musculus [16], in the series on L02 [18], in the series with L02 [19] and in the series on L02 [20] was Active. The result with L02 [21] and with L02 [22] was Active. Also, the Activity result in the series on L02 [5] is recorded as “Non-Toxic”. The viability at 5 µM with L02 [17] turned out to be 110%.
With `COC(=O)c1ccc(-c2ccc(C(=O)OC)cc2)cc1` [BIPHENYL DIMETHYL DICARBOXYLATE], the outcome with Mus musculus [23], with L02 [3], with Mus musculus [24], in the series with Mus musculus [25], with Mus musculus [26] and in the series with Mus musculus [27] was Active. Besides, the result in the series with Mus musculus [28], in the series on Mus musculus [29], with Mus musculus [30], in the series on Mus musculus [31], with Mus musculus [32] and with L02 [22] was Active. Moreover, the result in the series on Mus musculus [33] was Active. Moreover, in the series with L02 [17], the viability at 5 µM was determined as 63.9%.
